From US10280171B2, “Heterocyclic inhibitors of PTPN11” (priority 2016, dated 2019)
Where a name gives a salt, the structure may show the parent alone. Read-outs that look alike come from different tables or passages of the source.

Columns and labels:
[1] = target: PTPN11-E76K mutant enzyme (Homo sapiens (Human), UniProt Q06124, E76K); assay: PTPN11 Enzymatic Assay (DiFMUP phosphatase activity); assay type: biochemical; details: DiFMUP 50 μM, 30 min preincubation
Method: Reaction was initiated by addition of DiFMUP (50 μM) at room temperature in 384-well black plate with a final reaction volume of 20 uL in assay buffer. […] Dose-response curves were analyzed using IC50 regression curve fitting (GeneData Screener). Curves were normalized to a high controls without inhibitor, and low controls without enzyme.

[2] = system: Phospho-ERK levels in KYSE-520 cells; assay: pERK AlphaScreen Protocol; assay type: cell-based; details: read-out: PERK Avg IC50
Method: KYSE-520 cells (10 k cells/well) were grown in 384-well plate in 20 uL of medium (RPMI-1640, without phenol red, containing 10% FBS) at 37° C. with 5% CO2 overnight. DMSO (control) or increasing concentrations of compounds were diluted in medium, added to the 384-well plate (5 uL/well, final DMSO concentration of 1%), and cells were then incubated with compounds for 2 hr. Phospho-ERK levels were measured using phospho-ERK1/2 AlphaScreen SureFire (PerkinElmer, TGRESB10K) following manufacturer's recommendations. Dose-response curves were analyzed using IC50 regression curve fitting (GeneData Screener). Curves were normalized to a high control without inhibitor (DMSO only), and low control (1 μM selumetinib).

[3] = full length PTPN11-E76K mutant enzyme 250 pM, read-out: PTPN11-E76K Avg IC50
[4] = Homo sapiens, KYSE-520, 2 h, KYSE-520 cells, 2 hr compound incubation, phospho-ERK1/2 AlphaScreen SureFire
[5] = PTPN11-E76K Avg IC50, full length PTPN11-E76K mutant enzyme 250 pM
[6] = KYSE-520 cells, 2 hr compound incubation, phospho-ERK1/2 AlphaScreen SureFire

Sequence of PTPN11-E76K mutant enzyme (Q06124 whole entry E76K): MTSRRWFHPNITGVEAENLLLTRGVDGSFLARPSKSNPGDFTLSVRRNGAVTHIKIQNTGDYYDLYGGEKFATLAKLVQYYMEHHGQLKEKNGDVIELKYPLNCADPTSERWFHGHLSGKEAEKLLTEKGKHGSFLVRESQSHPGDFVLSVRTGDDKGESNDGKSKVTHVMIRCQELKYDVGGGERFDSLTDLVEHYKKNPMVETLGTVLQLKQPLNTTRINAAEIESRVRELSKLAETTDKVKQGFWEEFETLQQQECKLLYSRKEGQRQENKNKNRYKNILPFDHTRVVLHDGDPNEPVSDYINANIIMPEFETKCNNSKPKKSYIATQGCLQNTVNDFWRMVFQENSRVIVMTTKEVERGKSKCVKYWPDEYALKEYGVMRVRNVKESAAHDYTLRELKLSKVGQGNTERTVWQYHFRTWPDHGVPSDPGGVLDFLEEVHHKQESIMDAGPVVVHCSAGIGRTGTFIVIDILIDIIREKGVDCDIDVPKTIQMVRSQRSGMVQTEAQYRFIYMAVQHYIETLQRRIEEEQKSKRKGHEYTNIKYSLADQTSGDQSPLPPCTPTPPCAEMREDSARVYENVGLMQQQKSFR

Structure (SMILES)	IC50 [1, 3] [nM]	IC50 [2, 4] [nM]	IC50 [1, 5] [nM]	IC50 ([2]; Homo sapiens, KYSE-520, 2 h) [nM]	IC50 [2, 6] [nM]
CC1(CN)CCN(c2cnc3c(-c4cccc(Cl)c4F)n[nH]c3n2)CC1 [Example 25, (1-(3-(3-Chloro-2-fluorophenyl)-1H-pyrazolo[3,4-b]pyrazin-6-yl)-4-methylpiperidin-4-yl)-methanamine]	101	47	–	–	–
CC1(N)CCN(c2cnc3c(-c4cccc(F)c4Cl)n[nH]c3n2)CC1 [Example 24, 1-(3-(2-chloro-3-fluorophenyl)-1H-pyrazolo[3,4-b]-pyrazin-6-yl)-4-methyl-piperidin-4-amine]	204	142	–	–	–
CC1(CN)CCN(c2cnc3c(-c4cccc(N)c4Cl)n[nH]c3n2)CC1 [Example 132, 3-{6-[4-(amino-methyl)-4-methyl-piperidin-1-yl]-1H-pyrazolo[3,4-b]-pyrazin-3-yl}-2-chloroaniline]	119	63	–	–	–
CC1(N)CCN(c2cnc3c(-c4cccc(C(F)(F)F)c4)n[nH]c3n2)CC1 [Example 21, 4-Methyl-1-(3-(3-(trifluoromethyl)phenyl)-1H-pyrazolo[3,4-b]pyrazin-6-yl)piperidin-4-amine]	956	620	–	–	–
COc1cccc(-c2n[nH]c3nc(N4CCC(C)(CN)CC4)cnc23)c1Cl [Example 27, (1-(3-(2-chloro-3-methoxy phenyl)-1H-pyrazolo[3,4-b]pyrazin-6-yl)-4-methylpiperidin-4-yl) methanamine]	80	55	–	–	–
CC1(CN)CCN(c2cnc3c(-c4cc(N)ncc4Cl)n[nH]c3n2)CC1 [Example 133, 4-{6-[4-(amino-methyl)-4-methyl-piperidin-1-yl]-1H-pyrazolo[3,4-b]-pyrazin-3-yl}-5-chloropyridin-2-amine]	840	533	–	–	–
NC1C(F)(F)CCC12CCN(c1cnc3c(-c4cccc(Cl)c4Cl)n[nH]c3n1)CC2 (single isomer, unassigned; isomer a) [Example 65A, 8-(3-(2,3-Dichlorophenyl)-1H-pyrazolo[3,4-b]pyrazin-6-yl)-2,2-difluoro-8-azaspiro[4.5]decan-1-amine, isomer A]	–	93	235	–	–
Nc1cc(-c2n[nH]c3nc(N4CCC5(CC4)COC[C@H]5N)cnc23)c(Cl)cn1 [Example 137, (4S)-8-[3-(2-amino-5-chloropyridin-4-yl)-1H-pyrazolo[3,4-b]pyrazin-6-yl]-2-oxa-8-azaspiro[4.5]-decan-4-amine]	504	1030	–	–	–
N[C@@H]1CCCC12CCN(c1cnc3c(-c4ccnc(O)c4Cl)n[nH]c3n1)CC2 [Example 108, (R)-4-(6-(1-Amino-8-azaspiro[4.5]decan-8-yl)-1H-pyrazolo[3,4-b]pyrazin-3-yl)-3-chloropyridin-2-ol trifluoroacetate]	726	–	–	6800	–
N[C@@H]1COCC12CCN(c1cnc3c(-c4ccnc(O)c4Cl)n[nH]c3n1)CC2 [Example 109, (S)-4-(6-(4-Amino-2-oxa-8-azaspiro[4.5]decan-8-yl)-1H-pyrazolo[3,4-b]pyrazin-3-yl)-3-chloropyridin-2-ol]	1100	10000	–	–	–
Nc1cccc(-c2n[nH]c3nc(N4CCC5(CCC[C@H]5N)CC4)cnc23)c1Cl [Example 131, (1R)-8-[3-(3-amino-2-chlorophenyl)-1H-pyrazolo[3,4-b]-pyrazin-6-yl]-8-aza-spiro[4.5]decan-1-amine]	84	35	–	–	–
N[C@@H]1CCCC12CCN(c1cnc3c(-c4ccc(F)c(Cl)c4)n[nH]c3n1)CC2 [Example 47, (R)-8-(3-(3-chloro-4-fluorophenyl)-1H-pyrazolo[3,4-b]-pyrazin-6-yl)-8-aza-spiro[4.5]decan-1-amine]	493	343	–	–	–
Nc1nccc(-c2n[nH]c3nc(N4CCC(N)(CO)CC4)cnc23)c1Cl [Example 119, (4-Amino-1-(3-(2-amino-3-chloropyridin-4-yl)-1H-pyrazolo[3,4-b]pyrazin-6-yl)-piperidin-4-yl)methanol]	422	1730	–	–	–
NCC1(O)CCN(c2cnc3c(-c4ccccc4Cl)n[nH]c3n2)CC1 [Example 60, 4-(aminomethyl)-1-(3-(2-chlorophenyl)-1H-pyrazolo[3,4-b]-pyrazin-6-yl)-piperidin-4-ol]	918	317	–	–	–
CNc1nccc(-c2n[nH]c3nc(N4CCC(C)(CN)CC4)cnc23)c1Cl [Example 104, 4-(6-(4-(Aminomethyl)-4-methylpiperidin-1-yl)-1H-pyrazolo[3,4-b]pyrazin-3-yl)-3-chloro-N-methylpyridin-2-amine]	99	47	–	–	–
CC1(CN)CCN(c2cnc3c(-c4ccnc(N)c4Cl)n[nH]c3n2)CC1 [Example 107, 4-(6-(4-(Aminomethyl)-4-methylpiperidin-1-yl)-1H-pyrazolo[3,4-b]pyrazin-3-yl)-3-chloropyridin-2-amine]	162	246	–	–	–
Cc1c(Cl)cccc1-c1n[nH]c2nc(N3CCC(C)(CN)CC3)cnc12 [Example 28, (1-(3-(3-chloro-2-methylphenyl)-1H-pyrazolo[3,4-b]-pyrazin-6-yl)-4-methylpiperidin-4-yl) methanamine]	142	190	–	–	–
NC1(CO)CCN(c2cnc3c(-c4c(F)cccc4Cl)n[nH]c3n2)CC1 [Example 121, (4-Amino-1-(3-(2-chloro-6-fluorophenyl)-1H-pyrazolo[3,4-b]pyrazin-6-yl)-piperidin-4-yl)methanol]	1080	1650	–	–	–
N[C@@H]1CCCC12CCN(c1cnc3c(-c4cc(Cl)cc(Cl)c4)n[nH]c3n1)CC2 [Example 45, (R)-8-(3-(3,5-dichloro-phenyl)-1H-pyrazolo[3,4-b]-pyrazin-6-yl)-8-aza-spiro[4.5]decan-1-amine]	355	1420	–	–	–
CCC1(N)CCN(c2cnc3c(-c4ccnc(N)c4Cl)n[nH]c3n2)CC1 [Example 135, 4-[6-(4-amino-4-ethylpiperidin-1-yl)-1H-pyrazolo[3,4-b]-pyrazin-3-yl]-3-chloropyridin-2-amine]	529	122	–	–	–
NC1(CO)CCN(c2cnc3c(-c4cccc(Cl)c4Cl)n[nH]c3n2)CC1 [Example 57, (4-Amino-1-(3-(2,3-dichlorophenyl)-1H-pyrazolo[3,4-b]pyrazin-6-yl)piperidin-4-yl)-methanol]	104	53	–	–	–
NCC1(O)CCN(c2cnc3c(-c4ccnc(O)c4Cl)n[nH]c3n2)CC1 [Example 120, 4-(6-(4-(Aminomethyl)-4-hydroxypiperidin-1-yl)-1H-pyrazolo[3,4-b]pyrazin-3-yl)-3-chloropyridin-2-ol]	5370	9700	–	–	–
CC1(CN)CCN(c2cnc3c(-c4cccc(C(F)(F)F)c4)n[nH]c3n2)CC1 [Example 22, (4-methyl-1-(3-(3-(trifluoromethyl)-phenyl)-1H-pyrazolo[3,4-b]pyrazin-6-yl)-piperidin-4-yl)-methanamine]	1750	976	–	–	–
NCC1(O)CCN(c2cnc3c(-c4cccc(F)c4Cl)n[nH]c3n2)CC1 [Example 37, 4-(Aminomethyl)-1-(3-(2-chloro-3-fluorophenyl)-1H-pyrazolo[3,4-b]pyrazin-6-yl)-piperidin-4-ol]	623	223	–	–	–
CC1(CN)CCN(c2cnc3c(-c4ccccc4Cl)n[nH]c3n2)CC1 [Example 29]	178	87	–	–	–
NC1C(F)CCC12CCN(c1cnc3c(-c4cccc(Cl)c4Cl)n[nH]c3n1)CC2 (single isomer, unassigned) [Example 64B, 8-(3-(2,3-Dichlorophenyl)-1H-pyrazolo[3,4-b]pyrazin-6-yl)-2-fluoro-8-azaspiro[4.5]decan-1-amine]	–	–	221	–	70
CC1(N)CCN(c2cnc3c(-c4cn[nH]c4C(F)(F)F)n[nH]c3n2)CC1 [Example 101, 4-Methyl-1-(3-(5-(trifluoromethyl)-1H-pyrazol-4-yl)-1H-pyrazolo[3,4-b]pyrazin-6-yl)-piperidin-4-amine]	1890	638	–	–	–
NC1C(F)CCC12CCN(c1cnc3c(-c4cccc(Cl)c4Cl)n[nH]c3n1)CC2 (single isomer, unassigned; isomer a) [Example 64A, 8-(3-(2,3-Dichlorophenyl)-1H-pyrazolo[3,4-b]pyrazin-6-yl)-2-fluoro-8-azaspiro[4.5]decan-1-amine, isomer A]	–	–	98	–	34
Nc1cc(-c2n[nH]c3nc(N4CCC5(CCC[C@H]5N)CC4)cnc23)c(Cl)cn1 [Example 125, (R)-8-(3-(2-amino-5-chloropyridin-4-yl)-1H-pyrazolo[3,4-b]pyrazin-6-yl)-8-azaspiro[4.5]decan-1-amine]	509	429	–	–	–
COc1cccc(-c2n[nH]c3nc(N4CCC5(CCC[C@H]5N)CC4)cnc23)c1Cl [Example 50, (R)-8-(3-(2-chloro-3-methoxyphenyl)-1H-pyrazolo[3,4-b]pyrazin-6-yl)-8-azaspiro[4.5]decan-1-amine]	39	34	–	–	–
